The structures appear in SMILES notation.

The values below come from patent US20250388551A1, “COMPOUNDS INDUCING PRODUCTION OF PROTEINS BY IMMUNE CELLS” (UNIVERSITE PARIS CITE, priority 2022, published 2025).

This assay concerns human B cells. As to the kind of experiment: IL-10 induction in human B cells cultivated with anti-IgM plus CpG. The conditions noted are these: B-cell, 48 h, 2 days, IL-10 in cell culture supernatants, read-out: IL-10 mean induction fold in human B cells treated with compound compared to DMSO control. In kind it is cell-based. How it is done:
Human B cells isolated magnetically through negative selection (B Cell Isolation Kit II, human, Miltenyi ref: 130-091-151) were cultivated for 2 consecutive days in the presence of anti-IgM plus CpG in the presence of the indicated molecule (see table 1) at 0.25 μM final concentration, or DMSO as control. IL-10 was measured in cell culture supernatants, and the IL-10 induction fold was calculated for each molecule compared to the DMSO control.
Human B cells isolated magnetically through negative selection (B Cell Isolation Kit II, human, Miltenyi ref: 130-091-151) were cultivated for 2 consecutive days in the presence of anti-IgM plus CpG in the presence of DMSO (as control) or in the presence of the tested molecule at 0.25 μM final concentration. IL-10 was measured in cell culture supernatants. NS: non stimulated B cell culture condition.
With `COc1cccc(F)c1C(=O)Nc1ccc2[nH]c(-c3ccc(F)cc3)nc2c1` [Compound 1, 2-Fluoro-N-[2-(4-fluorophenyl)-1H-benzimidazol-6-yl]-6-methoxybenzamide], the fold induction at 0.25 µM was found to be 1.91. Take `CN(C)S(=O)(=O)c1cc(C(=O)Nc2ccc3[nH]c(-c4ccc(F)cc4)nc3c2)ccc1Cl` [Compound 4, 4-Chloro-3-[(dimethylamino)sulfonyl]-N-[2-(4-fluorophenyl)-1H-benzimidazol-6-yl]benzamide]: the fold induction at 0.25 µM is 1.49. `O=C(Nc1ccc(-c2nc3ccc(NC(=O)c4ccc(/N=C/c5ccccc5O)cc4)c(Cl)c3[nH]2)cc1)c1ccc(/N=C/c2ccccc2O)cc1` [Compound 22, N-[4-(7-chloro-6-{[(4-{[(E)-(2-hydroxyphenyl)methylidene]amino}phenyl)carbonyl]amino}-1H-benzimidazol-2-yl)phenyl]-4-{[(E)-(2-hydroxyphenyl)methylidene]amino} benzamide]: the fold induction at 0.25 µM is 1.34.

Regarding `Cc1ccc(-c2nn3c4ccc(NC(=O)c5ccccc5I)cc4nc3c3ccccc23)cc1` [Compound 30, 2-lodo-N-[5-(4-methyl-phenyl)benzimidazo[2,1-a]phthalazin-10-yl]benzamide], the fold induction at 0.25 µM turned out to be 1.37. Turning to `Cc1ccc(-c2nn3c4ccc(NC(=O)c5ccccc5)cc4nc3c3ccccc23)cc1` [Compound 31, N-[5-(4-Methylphenyl)benzimidazo [2,1-a]phthalazin-10-yl]benzamide], the fold induction at 0.25 µM came out at 1.72.

With `COc1ccccc1C(=O)Nc1ccc2c(c1)nc1c3ccccc3c(-c3ccc(C)cc3)nn21` [Compound 32, 2-Methoxy-N-[5-(4-methylphenyl)benzimidazo [2,1-a]phthalazin-10-yl]benzamide], the fold induction at 0.25 µM turned out to be 1.42. As for `COc1ccccc1C(=O)Nc1ccc2c(c1)nc1c3ccccc3c(C)nn21` [Compound 40, 2-Methoxy-N-(5-methylbenzimidazo[2,1-a]phthalazin-10-yl)benzamide], the fold induction at 0.25 µM was 1.72. As for `O=C(Nc1ccc2c(c1)nc1c3ccccc3c(-c3ccc(Cl)cc3)nn21)c1ccccc1` [Compound 43, N-[5-(4-Chloro-phenyl)benzimidazo[2,1-a]phthalazin-10-yl]benzamide], the fold induction at 0.25 µM was determined as 1.3. As for `CSc1ccccc1C(=O)Nc1ccc2[nH]c(-c3cccc(F)c3)nc2c1` [Compound 52, N-[2-(3-Fluorophenyl)-1H-benzimidazol-6-yl]-2-(methylthio)benzamide], the fold induction at 0.25 µM was found to be 1.91. As to `O=C(Nc1ccc2[nH]c(-c3ccc(F)cc3)nc2c1)c1cc(F)cc2nccnc12` [Compound 54, 7-Fluoro-N-[2-(4-fluorophenyl)-1H-benzimidazol-6-yl]-5-quinoxalinecarboxamide], the fold induction at 0.25 µM is 1.71. With `O=C(Nc1ccc2[nH]c(-c3cc(F)ccc3F)nc2c1)c1cc(F)cc2nccnc12` [Compound 56, N-[2-(2,5-Difluorophenyl)-1H-benzimidazol-6-yl]-7-fluoro-5-quinoxalinecarboxamide], the fold induction at 0.25 µM turned out to be 1.76. The same measure for `O=C(Nc1ccc2[nH]c(-c3cccc(F)c3)nc2c1)c1ccc(-n2cc[nH]c2=S)cc1` [Compound 57, N-[2-(3-fluorophenyl)-1H-benzimidazol-5-yl]-4-(2-sulfanylidene-3H-imidazol-1-yl)benzamide]: 1.33; for `O=C1CCSc2ccc(C(=O)Nc3ccc4[nH]c(-c5cccc(F)c5)nc4c3)cc2N1` [Compound 58, N-[2-(3-fluorophenyl)-1H-benzimidazol-5-yl]-4-oxo-3,5-dihydro-2H-1,5-benzothiazepine-7-carboxamide]: 1.56.

Turning to `O=C(Nc1ccc2[nH]c(-c3ccccc3Cl)nc2c1)c1ccccc1N1CCOCC1` [Compound 61, N-[2-(2-Chlorophenyl)-1H-benzimidazol-6-yl]-2-(4-morpholinyl)benzamide], the fold induction at 0.25 µM turned out to be 2.18. `Nc1ccc(C(=O)Nc2ccc(-c3nc4cc(NC(=O)c5ccc(N)cc5)c(Cl)cc4[nH]3)cc2)cc1` [Compound 67, 4-Amino-N-[4-[5-[(4-aminobenzoyl)amino]-6-chloro-1H-benzimidazol-2-yl]phenyl]benzamide]: the fold induction at 0.25 µM came out at 1.84. As for `O=C(Nc1ccc2[nH]c(-c3cccnc3)nc2c1)c1ccccc1` [Compound 107, N-[2-(3-Pyridinyl)-1H-benzimidazol-6-yl]benzamide], the fold induction at 0.25 µM was found to be 1.33. For the molecule `Fc1cccc(-c2nc3cc(Br)ccc3[nH]2)c1` [Compound 110, 6-Bromo-2-(3-fluorophenyl)-1H-benzimidazole], the fold induction at 0.25 µM was 1.43. The result for `Fc1ccc(-c2nc3cc(Br)ccc3[nH]2)cc1` [Compound 111, 6-Bromo-2-(4-fluorophenyl)-1H-benzimidazole] reads 1.56; that for `O=C(Nc1ccc2nc(-c3ccc(F)cc3)[nH]c2c1)c1ccccc1` [Compound 116, N-[2-(4-Fluorophenyl)-1H-benzimidazol-6-yl]benzamide], 1.48. For the molecule `O=C(Nc1ccc2nc(-c3cccc(F)c3)[nH]c2c1)c1ccccc1` [Compound 117, N-(2-(3-fluorophenyl)-1H-benzo[d]imidazol-6-yl)benzamide], the fold induction at 0.25 µM was 1.93. As to `O=C(Nc1ccc2nc(-c3ccccc3F)[nH]c2c1)c1ccccc1` [Compound 120, N-(2-(2-fluorophenyl)-1H-benzo[d]imidazol-6-yl)benzamide], the fold induction at 0.25 µM amounted to 1.68. On to `COc1ccccc1C(=O)Nc1ccc2nc(-c3cccnc3)[nH]c2c1` [Compound 124, 2-Methoxy-N-[2-(3-pyridinyl)-1H-benzimidazol-6-yl]benzamide], for which the fold induction at 0.25 µM is 3.5. Take `Fc1ccccc1-c1nc2ccc(Br)cc2[nH]1` [Compound 136, 6-bromo-2-(2-fluorophenyl)-1H-Benzimidazole]: the fold induction at 0.25 µM was determined as 2.88. The same measure for `COc1ccccc1C(=O)Nc1ccc2nc(-c3ccc(F)cc3)[nH]c2c1` [Compound 145, N-(2-(4-fluorophenyl)-1H-benzo[d]imidazol-6-yl)-2-methoxybenzamide]: 1.59; for `COc1ccccc1C(=O)Nc1ccc2nc(-c3cccc(F)c3)[nH]c2c1` [Compound 153, N-(2-(3-fluorophenyl)-1H-benzo[d]imidazol-6-yl)-2-methoxybenzamide]: 1.38; for `COc1ccccc1C(=O)Nc1ccc2nc(-c3ccccc3F)[nH]c2c1` [Compound 157, N-(2-(2-fluorophenyl)-1H-benzo[d]imidazol-6-yl)-2-methoxybenzamide]: 1.61. For the molecule `COc1ccccc1NC(=O)c1ccc2nc(-c3ccccc3)[nH]c2c1` [Compound 366, N-(2-methoxyphenyl)-2-phenyl-1H-benzo[d]imidazole-6-carboxamide], the fold induction at 0.25 µM came to 1.95. For `COc1ccccc1NC(=O)c1ccc2nc(-c3ccccc3F)[nH]c2c1` [Compound 371, 2-(2-fluorophenyl)-N-(2-methoxyphenyl)-1H-benzo[d]imidazole-6-carboxamide], the fold induction at 0.25 µM amounted to 1.84.

Turning to `COc1ccccc1NC(=O)c1ccc2nc(-c3cccnc3)[nH]c2c1` [Compound 375, N-(2-methoxyphenyl)-2-(pyridin-3-yl)-1H-benzo[d]imidazole-6-carboxamide], the fold induction at 0.25 µM was found to be 1.6. On to `O=C(Nc1ccc2[nH]c(-c3ccccc3)nc2c1)c1ccccc1` [Compound N4, N-(2-Phenyl-1H-benzimidazol-6-yl)benzamide], for which the fold induction at 0.25 µM amounted to 1.61.
